According to the NIST ThermoML archive (doi:10.1021/je0601255):

Experiment: xn = mol fraction of the nth substance listed
Conditions: 101 kPa, Liquid; for viscosity: Capillary tube (Ostwald / Ubbelohde) method; for mass density: Pycnometric method

C=C(C)C(=O)O [2-methyl-2-propenoic acid] + CCCCO
Conditions	mass density, 288.15 K [kg/m3]	mass density, 298.15 K [kg/m3]	mass density, 308.15 K [kg/m3]	mass density, 318.15 K [kg/m3]	viscosity, 288.15 K [mPa·s]	viscosity, 298.15 K [mPa·s]	viscosity, 308.15 K [mPa·s]	viscosity, 318.15 K [mPa·s]
x2 = 0	1018.3	1009.5	999.4	989.2	1.447	1.267	1.078	0.945
x2 = 0.1	996.3	987.7	978	968.1	1.632	1.4	1.174	1.015
x2 = 0.2	974.7	966.5	957.4	948.1	1.818	1.534	1.275	1.09
x2 = 0.3	954.3	946.3	937.7	928.7	2.009	1.672	1.377	1.16
x2 = 0.4	934.2	926.6	918.1	909.3	2.2	1.81	1.476	1.227
x2 = 0.5	914.2	907	898.6	890.1	2.392	1.947	1.574	1.294
x2 = 0.6	894.2	887.4	879	870.6	2.576	2.079	1.667	1.355
x2 = 0.7	874.1	867.3	859.1	851	2.756	2.204	1.756	1.413
x2 = 0.8	853.7	847	839.2	831.4	2.935	2.329	1.842	1.466
x2 = 0.9	832.9	826.7	819.1	811.5	3.111	2.453	1.925	1.515

C=C(C)C(=O)OCc1ccccc1 [benzyl methacrylate] + CCCCO
Conditions	mass density, 288.15 K [kg/m3]	mass density, 298.15 K [kg/m3]	mass density, 308.15 K [kg/m3]	mass density, 318.15 K [kg/m3]	viscosity, 288.15 K [mPa·s]	viscosity, 298.15 K [mPa·s]	viscosity, 308.15 K [mPa·s]	viscosity, 318.15 K [mPa·s]
x2 = 0	1041.2	1034.7	1025.8	1017	2.871	2.302	1.885	1.58
x2 = 0.1	1027.8	1021.3	1012.5	1003.9	2.655	2.123	1.746	1.455
x2 = 0.2	1013.3	1006.8	998.1	989.5	2.519	2.021	1.656	1.388
x2 = 0.3	997.5	990.9	982.3	973.8	2.462	1.958	1.605	1.342
x2 = 0.4	979.9	973.3	964.8	956.4	2.41	1.919	1.568	1.308
x2 = 0.5	960.3	953.7	945.3	937	2.384	1.868	1.525	1.272
x2 = 0.6	938.3	931.6	923.4	915.2	2.375	1.834	1.505	1.247
x2 = 0.7	913.2	906.6	898.5	890.4	2.427	1.863	1.508	1.244
x2 = 0.8	884.5	877.9	869.9	862	2.51	1.982	1.59	1.302
x2 = 0.9	851.3	844.6	836.8	829.1	2.704	2.168	1.727	1.394

C=C(C)C(=O)OCCO [2-hydroxyethyl 2-methyl-2-propenoate] + CCCCO
Conditions	mass density, 288.15 K [kg/m3]	mass density, 298.15 K [kg/m3]	mass density, 308.15 K [kg/m3]	mass density, 318.15 K [kg/m3]	viscosity, 288.15 K [mPa·s]	viscosity, 298.15 K [mPa·s]	viscosity, 308.15 K [mPa·s]	viscosity, 318.15 K [mPa·s]
x2 = 0	1074.7	1067.1	1057.7	1048.6	8.234	5.784	4.194	3.181
x2 = 0.1	1054.5	1047.1	1037.9	1029.1	7.303	5.188	3.822	2.963
x2 = 0.2	1033.3	1025.9	1016.9	1008.3	6.437	4.643	3.432	2.692
x2 = 0.3	1010.9	1003.6	994.8	986.3	5.681	4.154	3.109	2.43
x2 = 0.4	987.3	980	971.3	963	5.118	3.738	2.829	2.222
x2 = 0.5	962.2	955.1	946.6	938.3	4.633	3.398	2.598	2.051
x2 = 0.6	935.7	928.6	920.3	912.1	4.195	3.092	2.399	1.9
x2 = 0.7	907.6	900.6	892.4	884.4	3.833	2.834	2.212	1.759
x2 = 0.8	877.7	870.8	862.9	855	3.534	2.666	2.089	1.657
x2 = 0.9	846	839.2	831.5	823.8	3.321	2.583	2.018	1.609
